Laboratory results from ChEMBL document CHEMBL4145687, “Novel Scaffolds for Dual Specificity Tyrosine-Phosphorylation-Regulated Kinase (DYRK1A) Inhibitors” (J Med Chem, 2018).
The source made the active and inactive calls. No cut-off for these calls is given here.

Assays:
[1] = target: T1, Dual specificity tyrosine-phosphorylation-regulated kinase 1A (Homo sapiens, UniProt Q13627); test: Inhibition of DYRK1A (unknown origin) assessed as remaining enzyme activity at 20 uM using DYRKtide as substrate by ATP regenerative NADH consuming assay
[2] = target: T1, Dual specificity tyrosine-phosphorylation-regulated kinase 1A; test: Inhibition of human DYRK1A expressed in HEK293 cells assessed as compound concentration causing 1.5 fold […] by NFAT response element-driven luciferase reporter gene assay relative to basal level; format: cell-based
[3] = target: T1, Dual specificity tyrosine-phosphorylation-regulated kinase 1A; test: Inhibition of DYRK1A (unknown origin) using DYRKtide as substrate by ATP regenerative NADH consuming assay
[4] = target: T1, Dual specificity tyrosine-phosphorylation-regulated kinase 1A; test: Inhibition of EGFP-tagged DYRK1A (unknown origin) expressed in human NCI-H1299 cells expressing FLAG-tagged tau assessed as reduction in tau T212 phosphorylation at 1 to 10 uM incubated for 2 hrs by Western blot analysis; format: cell-based
[5] = target: Dual specificity protein kinase CLK2 (Homo sapiens) (UniProt P49760); test: Inhibition of human CLK2 expressed in bacterial expression system at 10 uM
[6] = target: Homeodomain-interacting protein kinase 2 (Homo sapiens) (UniProt Q9H2X6); test: Inhibition of human HIPK2 expressed in mammalian expression system at 10 uM
[7] = target: Homeodomain-interacting protein kinase 1 (Homo sapiens) (UniProt Q86Z02); test: Inhibition of human HIPK1 expressed in mammalian expression system at 10 uM
[8] = target: Cyclin-dependent kinase 7 (Homo sapiens) (UniProt P50613); test: Inhibition of human CDK7 expressed in mammalian expression system at 10 uM
[9] = target: Glycogen synthase kinase-3 beta (Homo sapiens) (UniProt P49841); test: Inhibition of human GSK3beta expressed in mammalian expression system at 10 uM
[10] = target: T1, Dual specificity tyrosine-phosphorylation-regulated kinase 1A; test: Inhibition of human DYRK1A expressed in HEK293 cells assessed as […] at 1 uM by NFAT response element-driven luciferase reporter gene assay relative to harmine; format: cell-based
[11] = target: Mitogen-activated protein kinase 7 (Homo sapiens) (UniProt Q13164); test: Inhibition of human ERK5 expressed in bacterial expression system at 10 uM
[12] = target: T2, Serine/threonine-protein kinase 17B (Homo sapiens) (UniProt O94768); test: Inhibition of human DRAK2 expressed in bacterial expression system at 10 uM
T2 sequence (whole entry): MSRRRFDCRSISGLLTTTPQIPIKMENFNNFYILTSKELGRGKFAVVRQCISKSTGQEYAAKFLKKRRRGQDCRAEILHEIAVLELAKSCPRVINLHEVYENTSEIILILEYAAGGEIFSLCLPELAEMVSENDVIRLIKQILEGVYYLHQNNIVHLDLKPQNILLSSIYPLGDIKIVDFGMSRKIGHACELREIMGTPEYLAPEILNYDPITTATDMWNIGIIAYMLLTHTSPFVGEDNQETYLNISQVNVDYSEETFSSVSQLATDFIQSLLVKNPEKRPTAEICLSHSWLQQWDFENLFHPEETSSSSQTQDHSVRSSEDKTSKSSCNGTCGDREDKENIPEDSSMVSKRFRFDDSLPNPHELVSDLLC

[13] = target: T3, Serine/threonine-protein kinase 17A (Homo sapiens) (UniProt Q9UEE5); test: Inhibition of human DRAK1 expressed in bacterial expression system at 10 uM
T3 sequence (whole entry): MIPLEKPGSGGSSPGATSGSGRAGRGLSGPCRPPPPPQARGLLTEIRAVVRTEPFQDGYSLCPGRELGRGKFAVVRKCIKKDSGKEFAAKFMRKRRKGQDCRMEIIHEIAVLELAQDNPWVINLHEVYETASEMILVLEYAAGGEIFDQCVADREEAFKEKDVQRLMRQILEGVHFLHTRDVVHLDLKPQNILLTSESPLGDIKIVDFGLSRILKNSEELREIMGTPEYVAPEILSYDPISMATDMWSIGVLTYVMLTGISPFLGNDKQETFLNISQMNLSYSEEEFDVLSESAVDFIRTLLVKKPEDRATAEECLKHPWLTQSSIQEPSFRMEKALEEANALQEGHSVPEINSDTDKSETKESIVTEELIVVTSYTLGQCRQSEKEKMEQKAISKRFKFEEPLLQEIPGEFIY

[14] = target: T1, Dual specificity tyrosine-phosphorylation-regulated kinase 1A; test: Inhibition of human DYRK1A expressed in mammalian expression system at 1 uM
[15] = target: Phosphatidylinositol 4-kinase beta (Homo sapiens) (UniProt Q9UBF8); test: Inhibition of human PIK4CB expressed in mammalian expression system at 1 uM
[16] = target: Glycogen synthase kinase-3 beta (Homo sapiens) (UniProt P49841); test: Inhibition of human GSK3beta expressed in mammalian expression system at 1 uM
[17] = target: Phosphatidylinositol 4,5-bisphosphate 3-kinase catalytic subunit gamma isoform (Homo sapiens) (UniProt P48736); test: Inhibition of human PIK3CG expressed in mammalian expression system at 1 uM
[18] = target: Serine/threonine-protein kinase mTOR (Homo sapiens) (UniProt P42345); test: Inhibition of human mTOR expressed in mammalian expression system at 10 uM
[19] = target: Glycogen synthase kinase-3 alpha (Homo sapiens) (UniProt P49840); test: Inhibition of human GSK3A expressed in bacterial expression system at 1 uM
[20] = target: Dual specificity protein kinase CLK1 (Homo sapiens) (UniProt P49759); test: Inhibition of human CLK1 expressed in bacterial expression system at 1 uM
[21] = target: T1, Dual specificity tyrosine-phosphorylation-regulated kinase 1A; test: Inhibition of human DYRK1A expressed in HEK293 cells assessed as […] at 0.1 uM by NFAT response element-driven luciferase reporter gene assay relative to harmine; format: cell-based
[22] = target: Dual specificity protein kinase CLK3 (Homo sapiens) (UniProt P49761); test: Inhibition of human CLK3 expressed in bacterial expression system at 1 uM
[23] = target: Dual specificity tyrosine-phosphorylation-regulated kinase 1B (Homo sapiens) (UniProt Q9Y463); test: Inhibition of human DYRK1B expressed in bacterial expression system at 1 uM
[24] = target: Tyrosine-protein kinase ABL1 (Homo sapiens) (UniProt P00519); test: Inhibition of human ABL1 at 10 uM
[25] = target: Platelet-derived growth factor receptor alpha (Homo sapiens) (UniProt P16234); test: Inhibition of human PDGFRalpha expressed in mammalian expression system at 10 uM
[26] = target: Platelet-derived growth factor receptor beta (Homo sapiens) (UniProt P09619); test: Inhibition of human PDGFRbeta expressed in bacterial expression system at 10 uM

Dual specificity protein kinase CLK2 (Homo sapiens), sequence (P49760 whole entry, looked up): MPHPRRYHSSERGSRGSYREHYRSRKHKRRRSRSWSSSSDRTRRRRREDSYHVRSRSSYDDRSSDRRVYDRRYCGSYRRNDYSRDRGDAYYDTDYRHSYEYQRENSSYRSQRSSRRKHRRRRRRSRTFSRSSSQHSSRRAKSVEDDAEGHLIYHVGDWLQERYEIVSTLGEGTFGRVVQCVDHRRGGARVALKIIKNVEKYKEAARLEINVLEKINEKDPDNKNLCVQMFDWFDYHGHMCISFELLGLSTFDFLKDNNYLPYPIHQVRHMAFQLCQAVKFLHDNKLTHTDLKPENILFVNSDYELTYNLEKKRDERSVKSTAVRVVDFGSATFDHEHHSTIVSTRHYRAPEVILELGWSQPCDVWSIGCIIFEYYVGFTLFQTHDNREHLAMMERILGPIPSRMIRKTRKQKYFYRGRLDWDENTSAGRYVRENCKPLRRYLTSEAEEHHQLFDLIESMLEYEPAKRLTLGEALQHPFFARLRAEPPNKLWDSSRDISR
Glycogen synthase kinase-3 beta (Homo sapiens), sequence (P49841 whole entry, looked up, canonical isoform): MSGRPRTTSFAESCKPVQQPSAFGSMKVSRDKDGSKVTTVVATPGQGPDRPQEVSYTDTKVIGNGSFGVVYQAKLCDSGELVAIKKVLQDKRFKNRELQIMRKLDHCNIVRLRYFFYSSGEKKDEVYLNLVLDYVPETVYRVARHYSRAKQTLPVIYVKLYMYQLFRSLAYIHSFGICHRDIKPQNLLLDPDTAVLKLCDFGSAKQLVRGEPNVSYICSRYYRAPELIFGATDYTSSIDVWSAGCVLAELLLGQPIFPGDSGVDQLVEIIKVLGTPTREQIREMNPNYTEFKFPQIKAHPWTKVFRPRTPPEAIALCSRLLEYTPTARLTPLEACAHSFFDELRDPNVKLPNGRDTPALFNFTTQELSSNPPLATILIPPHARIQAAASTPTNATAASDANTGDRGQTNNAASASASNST
Platelet-derived growth factor receptor alpha (Homo sapiens), sequence (P16234 whole entry): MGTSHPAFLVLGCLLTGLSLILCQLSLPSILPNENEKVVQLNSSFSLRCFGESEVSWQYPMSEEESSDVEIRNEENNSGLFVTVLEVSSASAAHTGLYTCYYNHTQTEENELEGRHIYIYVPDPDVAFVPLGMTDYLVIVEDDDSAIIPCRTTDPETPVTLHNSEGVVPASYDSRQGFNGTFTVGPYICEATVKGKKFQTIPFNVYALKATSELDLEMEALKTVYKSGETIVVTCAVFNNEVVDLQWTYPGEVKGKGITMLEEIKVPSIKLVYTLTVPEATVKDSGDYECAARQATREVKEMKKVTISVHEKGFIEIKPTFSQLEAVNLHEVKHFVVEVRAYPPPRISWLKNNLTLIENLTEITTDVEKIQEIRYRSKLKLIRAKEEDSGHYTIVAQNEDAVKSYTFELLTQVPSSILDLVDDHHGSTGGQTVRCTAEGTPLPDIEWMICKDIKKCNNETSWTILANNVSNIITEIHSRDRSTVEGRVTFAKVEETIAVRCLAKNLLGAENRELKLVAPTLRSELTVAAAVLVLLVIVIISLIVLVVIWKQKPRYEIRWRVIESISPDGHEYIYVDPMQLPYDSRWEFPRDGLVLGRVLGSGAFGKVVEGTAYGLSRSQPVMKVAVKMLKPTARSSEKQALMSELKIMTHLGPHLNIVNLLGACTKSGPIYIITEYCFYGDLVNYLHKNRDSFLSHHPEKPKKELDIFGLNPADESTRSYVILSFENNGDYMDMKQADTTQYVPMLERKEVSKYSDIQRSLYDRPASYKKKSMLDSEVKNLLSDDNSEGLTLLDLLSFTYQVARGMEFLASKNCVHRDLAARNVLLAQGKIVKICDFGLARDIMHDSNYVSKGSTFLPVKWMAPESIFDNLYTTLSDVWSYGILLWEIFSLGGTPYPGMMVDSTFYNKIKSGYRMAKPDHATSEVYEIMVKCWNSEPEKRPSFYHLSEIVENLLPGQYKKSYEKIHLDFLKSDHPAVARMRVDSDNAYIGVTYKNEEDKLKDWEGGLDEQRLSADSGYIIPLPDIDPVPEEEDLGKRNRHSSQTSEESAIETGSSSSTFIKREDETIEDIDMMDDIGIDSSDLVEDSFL
Phosphatidylinositol 4-kinase beta (Homo sapiens), sequence (Q9UBF8 2-816 limits assumed): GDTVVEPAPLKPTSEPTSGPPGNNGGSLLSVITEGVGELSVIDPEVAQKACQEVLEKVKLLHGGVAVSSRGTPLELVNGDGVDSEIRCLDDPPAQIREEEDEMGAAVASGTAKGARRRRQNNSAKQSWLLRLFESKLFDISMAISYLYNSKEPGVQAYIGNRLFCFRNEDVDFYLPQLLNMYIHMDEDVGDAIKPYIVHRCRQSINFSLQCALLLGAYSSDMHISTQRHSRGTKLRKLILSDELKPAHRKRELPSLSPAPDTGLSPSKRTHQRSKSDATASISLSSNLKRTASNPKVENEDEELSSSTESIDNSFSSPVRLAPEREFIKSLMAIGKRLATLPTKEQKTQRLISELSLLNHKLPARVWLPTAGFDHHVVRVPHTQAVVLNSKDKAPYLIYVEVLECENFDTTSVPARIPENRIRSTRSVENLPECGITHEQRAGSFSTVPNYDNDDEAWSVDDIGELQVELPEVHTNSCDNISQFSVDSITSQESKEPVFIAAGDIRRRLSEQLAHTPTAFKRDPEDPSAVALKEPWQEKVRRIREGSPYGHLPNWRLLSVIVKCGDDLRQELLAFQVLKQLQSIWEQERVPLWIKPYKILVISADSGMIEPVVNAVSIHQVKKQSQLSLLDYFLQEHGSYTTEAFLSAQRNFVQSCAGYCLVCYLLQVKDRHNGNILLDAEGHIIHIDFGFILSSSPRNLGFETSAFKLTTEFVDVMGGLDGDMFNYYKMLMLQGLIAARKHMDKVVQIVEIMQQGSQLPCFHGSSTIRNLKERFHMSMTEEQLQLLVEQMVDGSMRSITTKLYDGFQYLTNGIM
Dual specificity protein kinase CLK3 (Homo sapiens), sequence (P49761 whole entry, looked up): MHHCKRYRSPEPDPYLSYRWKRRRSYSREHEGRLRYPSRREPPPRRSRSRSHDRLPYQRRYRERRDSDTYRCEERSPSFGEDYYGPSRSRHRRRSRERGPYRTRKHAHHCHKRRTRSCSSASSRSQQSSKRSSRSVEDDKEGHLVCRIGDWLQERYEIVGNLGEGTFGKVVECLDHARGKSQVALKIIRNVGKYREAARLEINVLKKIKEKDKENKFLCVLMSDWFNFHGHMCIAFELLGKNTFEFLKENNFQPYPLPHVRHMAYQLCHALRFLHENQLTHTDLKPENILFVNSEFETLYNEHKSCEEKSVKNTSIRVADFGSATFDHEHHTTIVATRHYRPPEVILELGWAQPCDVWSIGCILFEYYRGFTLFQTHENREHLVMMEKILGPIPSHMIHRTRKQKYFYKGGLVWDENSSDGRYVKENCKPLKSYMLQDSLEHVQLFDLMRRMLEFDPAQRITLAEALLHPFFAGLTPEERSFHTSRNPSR
Glycogen synthase kinase-3 alpha (Homo sapiens), sequence (P49840 2-483 limits assumed): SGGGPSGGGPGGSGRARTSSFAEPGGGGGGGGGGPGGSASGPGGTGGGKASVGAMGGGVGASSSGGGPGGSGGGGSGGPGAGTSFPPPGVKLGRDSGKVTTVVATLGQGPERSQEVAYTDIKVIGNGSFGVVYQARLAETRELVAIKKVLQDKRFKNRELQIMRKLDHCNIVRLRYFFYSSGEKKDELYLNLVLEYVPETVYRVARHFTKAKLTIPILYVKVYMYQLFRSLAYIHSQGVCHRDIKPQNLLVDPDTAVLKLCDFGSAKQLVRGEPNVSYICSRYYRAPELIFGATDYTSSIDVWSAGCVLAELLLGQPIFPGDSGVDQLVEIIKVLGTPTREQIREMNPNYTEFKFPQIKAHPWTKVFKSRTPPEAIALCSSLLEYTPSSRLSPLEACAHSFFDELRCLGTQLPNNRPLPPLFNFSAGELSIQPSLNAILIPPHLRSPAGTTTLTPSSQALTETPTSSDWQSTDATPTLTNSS
Homeodomain-interacting protein kinase 2 (Homo sapiens), sequence (Q9H2X6 whole entry, looked up): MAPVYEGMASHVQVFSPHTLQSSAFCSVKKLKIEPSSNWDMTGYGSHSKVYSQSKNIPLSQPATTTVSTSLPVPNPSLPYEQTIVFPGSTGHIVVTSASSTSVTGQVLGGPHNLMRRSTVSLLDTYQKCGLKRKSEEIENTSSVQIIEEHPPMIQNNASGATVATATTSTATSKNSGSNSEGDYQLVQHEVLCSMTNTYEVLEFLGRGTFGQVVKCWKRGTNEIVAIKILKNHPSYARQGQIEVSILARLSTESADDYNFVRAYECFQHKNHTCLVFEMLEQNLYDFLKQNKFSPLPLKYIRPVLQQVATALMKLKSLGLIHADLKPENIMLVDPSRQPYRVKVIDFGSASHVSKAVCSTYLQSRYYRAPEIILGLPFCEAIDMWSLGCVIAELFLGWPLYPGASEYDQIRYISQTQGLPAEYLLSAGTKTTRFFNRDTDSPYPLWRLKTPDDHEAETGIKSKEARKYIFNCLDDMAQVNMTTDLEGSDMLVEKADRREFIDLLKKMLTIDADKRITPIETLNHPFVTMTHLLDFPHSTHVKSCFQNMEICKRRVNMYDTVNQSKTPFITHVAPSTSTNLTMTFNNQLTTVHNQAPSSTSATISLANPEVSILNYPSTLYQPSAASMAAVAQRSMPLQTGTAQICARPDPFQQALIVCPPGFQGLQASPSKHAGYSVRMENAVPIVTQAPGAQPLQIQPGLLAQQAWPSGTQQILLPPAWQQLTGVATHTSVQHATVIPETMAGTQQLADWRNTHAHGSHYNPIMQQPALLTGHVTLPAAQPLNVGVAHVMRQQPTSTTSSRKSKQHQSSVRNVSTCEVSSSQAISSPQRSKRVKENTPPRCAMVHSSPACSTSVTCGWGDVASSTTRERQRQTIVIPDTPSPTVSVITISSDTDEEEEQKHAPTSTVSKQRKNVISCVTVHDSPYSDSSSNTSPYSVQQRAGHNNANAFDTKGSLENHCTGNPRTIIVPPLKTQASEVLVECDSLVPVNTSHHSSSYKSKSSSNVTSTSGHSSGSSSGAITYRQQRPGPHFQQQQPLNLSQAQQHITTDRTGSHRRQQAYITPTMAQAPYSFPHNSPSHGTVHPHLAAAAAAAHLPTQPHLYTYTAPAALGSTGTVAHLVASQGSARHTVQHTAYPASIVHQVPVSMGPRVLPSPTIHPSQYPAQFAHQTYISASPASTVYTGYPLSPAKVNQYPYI

Activity [1] [%] | Activity [2] | IC50 ([3]; read-out: IC50) [nM] | Ki ([3]; read-out: Ki) [nM] | inhibition [4] | inhibition [5] | SMILES | other results
0 | 1 to 5 µM | 216 | 104 | Dose-dependent effect |  | NS(=O)(=O)c1ccc(-c2cnc3[nH]cc(-c4cccnc4)c3c2)cc1 | inhibition [2]: Dose-dependent effect
0 | 5 to 10 µM | 329 | 158 | Dose-dependent effect |  | Nc1cccc(-c2cnc3[nH]cc(-c4cccnc4)c3c2)c1 | 
24 | 5 to 10 µM | > 6000 | > 2800 | Active | Active | COc1ccc(N)cc1-c1cnc(N)c(C(=O)c2cccnc2)n1 | inhibition [6]: Active; inhibition [7]: Active; inhibition [8]: Active; inhibition [9]: Active
2 | 0.05 to 0.1 µM | 532 | 252 | Active |  | O=c1ccc2cnc3ccc(-c4cn[nH]c4)cc3c2n1-c1ccc(F)cc1C(F)(F)F | inhibition [14]: Active; inhibition [15]: Active; inhibition [16]: Active; inhibition [17]: Active; inhibition [18]: Active; inhibition [19]: Active; inhibition [20]: Active; fold change (FC) [21]: 2; inhibition [22]: Active; inhibition [23]: Active

Continued, molecule first:

SMILES | Activity [1] [%] | Activity [2] | IC50 ([3]; read-out: IC50) [nM] | Ki ([3]; read-out: Ki) [nM] | inhibition [4] | inhibition [5] | other results
C=CC(=O)Nc1ccc(C(=O)c2sc(Nc3ccc(N4CCN(C)CC4)cc3OC)nc2N)cc1 | 4 | inactive | 1200 | 575 | Dose-dependent effect | Active | 
C=CC(=O)Nc1cccc(C(=O)c2sc(Nc3ccc(N4CCN(C)CC4)cc3)nc2N)c1 |  |  |  |  | Active | Active | IC50 [3]: Nd(Insoluble); Ki [3]: Nd(Insoluble)
COc1cc(N2CCN(C)CC2)ccc1Nc1nc(N)c(C(=O)c2ccccc2)s1 | 1.3 | 10 to 20 µM | 800 | 383 | Dose-dependent effect |  | 
CN1C(=O)[C@H]2CCC[C@H]2N(C2CCCC2)c2nc(Nc3ccc(C(N)=O)cc3)ncc21 | 15 | 0.5 to 1 µM | 4200 | 2020 | Active |  | fold change (FC) [10]: 2; inhibition [11]: Active; inhibition [12]: Active; inhibition [13]: Active
O=C(NCCN1CCOCC1)Nc1cccc(-c2ccc3nc(NC(=O)C4CC4)sc3n2)c1 | 11 | > 20 µM | 3500 | 1680 | Active | Active | inhibition [24]: Active; inhibition [25]: Active; inhibition [26]: Active
